One may read the IC50 as the concentration needed to halve the response being measured. As usually defined, the Ki is the dissociation constant of the complex between target and ligand, obtained from inhibition or displacement. The EC50 is the midpoint of the concentration-response curve.

In test [1] the target is T1, Tyrosine-protein phosphatase non-receptor type 1 (Homo sapiens, UniProt P18031).
T1 sequence (P18031 whole entry): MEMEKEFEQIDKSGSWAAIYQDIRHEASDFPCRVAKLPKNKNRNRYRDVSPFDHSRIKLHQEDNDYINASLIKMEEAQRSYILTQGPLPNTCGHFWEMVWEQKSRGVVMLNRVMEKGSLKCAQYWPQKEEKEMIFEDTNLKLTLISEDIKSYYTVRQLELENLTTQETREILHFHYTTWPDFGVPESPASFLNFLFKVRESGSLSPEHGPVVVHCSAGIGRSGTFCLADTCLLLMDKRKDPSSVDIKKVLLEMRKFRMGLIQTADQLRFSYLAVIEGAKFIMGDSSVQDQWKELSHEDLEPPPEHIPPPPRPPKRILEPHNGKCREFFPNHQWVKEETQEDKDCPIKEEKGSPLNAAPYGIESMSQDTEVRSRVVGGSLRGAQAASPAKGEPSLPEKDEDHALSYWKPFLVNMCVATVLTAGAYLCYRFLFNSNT
Put plainly: Inhibition of human PTP1B using pNPP as substrate incubated for 30 min by UV-Visible spectrophotometer assay.

Test [2] concerns the target T1, Tyrosine-protein phosphatase non-receptor type 1. Put plainly: Inhibition of PTP1B (1 to 321 residues) (unknown origin) expressed in Escherichia coli BL21 assessed as inhibition constant using pNPP as substrate incubated for 60 min by Michaelis-Menten analysis.
Test [3] has the same target. Description: Inhibition of human recombinant PTP1B using pNPP as substrate incubated for 40 min.
Test [4] is filed under the species Homo sapiens. Put plainly: Selectivity ratio of IC50 for PTP1B (unknown origin) to IC50 for TCPTP (unknown origin).
The target of test [5] is T1, Tyrosine-protein phosphatase non-receptor type 1. Description: Inhibition of PTP1B (unknown origin) using pNPP as substrate.
In test [6] the test system is Mus musculus. Put plainly: Hypoglycemic activity in alloxan monohydrate induced diabetic model of BALB/c mouse assessed as decrease in glucose level at 10 mg/kg,po measured upto 8 hrs by glucometer. It counts as functional. Also noted: scale not given: the % may be the effect or the level left.
Test [7] deals with Aldo-keto reductase family 1 member B1 (Homo sapiens, UniProt P15121). Put plainly: Inhibition of ALR2 (unknown origin) using D,L-glyceraldehyde as substrate incubated for 10 mins in presence of NADPH by UV-spectrophotometric assay.
A short description of test [8]: Inhibition of ALR2 in Wistar rat lens using D,L-glyceraldehyde as substrate preincubated for 1 min in presence of NADPH followed by substrate addition and measured after 4 mins by spectrophotometric assay. It counts as tissue-based.
Test [9] concerns the target T2, Peroxisome proliferator-activated receptor gamma (Homo sapiens, UniProt P37231).
T2 sequence (P37231 whole entry): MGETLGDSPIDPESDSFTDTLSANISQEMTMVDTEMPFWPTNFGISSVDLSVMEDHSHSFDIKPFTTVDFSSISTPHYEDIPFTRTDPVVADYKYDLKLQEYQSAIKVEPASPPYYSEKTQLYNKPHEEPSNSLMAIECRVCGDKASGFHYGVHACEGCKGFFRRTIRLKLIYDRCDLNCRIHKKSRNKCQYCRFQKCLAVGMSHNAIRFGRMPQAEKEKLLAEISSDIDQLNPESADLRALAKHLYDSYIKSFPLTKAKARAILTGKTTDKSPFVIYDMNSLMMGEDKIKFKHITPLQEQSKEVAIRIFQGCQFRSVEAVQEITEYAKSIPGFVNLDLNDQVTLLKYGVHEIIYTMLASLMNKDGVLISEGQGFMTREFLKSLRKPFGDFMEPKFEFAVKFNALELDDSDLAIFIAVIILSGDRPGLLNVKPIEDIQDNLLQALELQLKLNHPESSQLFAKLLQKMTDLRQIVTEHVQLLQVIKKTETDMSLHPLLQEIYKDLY
Put plainly: Agonist activity at Gal4-PPARgamma (unknown origin) transfected in HCT-116 cells incubated for 24 hrs by luciferase reporter assay. It counts as cell-based. In general terms: A reporter such as luciferase makes a cellular process visible.

Test [10] addresses T1, Tyrosine-protein phosphatase non-receptor type 1. Put plainly: Inhibition of human recombinant PTP1B expressed in Escherichia coli BL21 (DE3) using pNPP as substrate by high-throughput screening assay.
Test [11] has the same target. Description: Inhibition of PTP1B (unknown origin) using DiFMUP as substrate incubated for 30 min by fluorescence based microplate reader assay.
For test [12] the target is unchanged. Put plainly: Inhibition of human recombinant PTP1B (1 to 321 residues) expressed in Escherichia coli BL21 assessed as inhibition constant using pNPP as substrate.
The target of test [13] is T3, Tyrosine-protein phosphatase non-receptor type 7 (Homo sapiens, UniProt P35236).
T3 sequence (P35236 whole entry): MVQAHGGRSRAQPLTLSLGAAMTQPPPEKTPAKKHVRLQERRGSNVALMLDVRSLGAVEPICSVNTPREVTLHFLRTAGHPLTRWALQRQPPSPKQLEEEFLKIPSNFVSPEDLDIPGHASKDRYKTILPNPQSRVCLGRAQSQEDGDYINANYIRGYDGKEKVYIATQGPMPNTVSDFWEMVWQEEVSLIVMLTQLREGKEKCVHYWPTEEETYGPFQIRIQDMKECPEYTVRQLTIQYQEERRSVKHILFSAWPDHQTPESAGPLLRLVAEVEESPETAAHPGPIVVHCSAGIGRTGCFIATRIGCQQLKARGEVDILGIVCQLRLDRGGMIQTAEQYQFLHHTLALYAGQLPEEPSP
Description: Inhibition of HEPTP (unknown origin).

Test [14] has as its target Receptor-type tyrosine-protein phosphatase alpha (Homo sapiens, UniProt P18433). Put plainly: Inhibition of PTPalpha (unknown origin).
The test system of test [15] is Mus musculus. Put plainly: Anti-diabetic activity in ob/ob diabetic C57BL/6J mouse assessed as decrease in glucose level at 25 mg/kg,po dosed for 4 days. It counts as functional. Also on record: scale not given: the % may be the effect or the level left. Conditions: time 4 day.
Test [16] addresses T1, Tyrosine-protein phosphatase non-receptor type 1. Put plainly: Inhibition of PTP1B (unknown origin) assessed as inhibition constant using pNPP as substrate.
The target is the same in test [17]. Put plainly: Inhibition of human recombinant GST-tagged PTP1B (1 to 321 residues) expressed in Escherichia coli using pNPP as substrate by spectrophotometer assay.
Test [18] has the same target. Put plainly: Inhibition of human recombinant GST-tagged PTP1B (1 to 321 residues) expressed in Escherichia coli using pNPP as substrate preincubated for 10 mins followed by substrate addition and measured after 30 mins by microplate reader assay.
Test [19] addresses Alpha-glucosidase (Saccharomyces cerevisiae S288c, UniProt P53341+P38158+P07265). Description: Inhibition of yeast alpha-glucosidase using PNP-G as substrate preincubated for 10 mins followed by substrate addition by spectrophotometer microplate reader assay. It counts as protein assay.
Test [20] has as its target T4, Prostaglandin G/H synthase 2 (Homo sapiens, UniProt P35354).
T4 sequence (P35354 whole entry): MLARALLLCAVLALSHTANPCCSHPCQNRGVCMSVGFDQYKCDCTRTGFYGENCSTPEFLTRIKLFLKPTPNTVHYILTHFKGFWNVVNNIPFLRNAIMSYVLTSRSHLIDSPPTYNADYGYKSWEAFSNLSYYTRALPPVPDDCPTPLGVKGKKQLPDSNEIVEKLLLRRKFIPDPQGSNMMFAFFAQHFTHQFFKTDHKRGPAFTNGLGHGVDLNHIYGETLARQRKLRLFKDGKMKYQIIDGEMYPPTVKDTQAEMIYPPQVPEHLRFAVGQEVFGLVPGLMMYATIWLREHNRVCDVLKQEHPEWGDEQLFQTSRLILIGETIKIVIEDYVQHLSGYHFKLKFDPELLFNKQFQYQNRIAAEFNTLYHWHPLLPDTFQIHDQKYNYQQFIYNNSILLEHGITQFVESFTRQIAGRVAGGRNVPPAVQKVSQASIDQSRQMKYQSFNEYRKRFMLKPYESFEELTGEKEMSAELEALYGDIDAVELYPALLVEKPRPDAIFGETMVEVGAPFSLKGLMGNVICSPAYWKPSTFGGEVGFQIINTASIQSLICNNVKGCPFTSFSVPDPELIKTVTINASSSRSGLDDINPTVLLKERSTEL
Put plainly: Inhibition of COX-2 (unknown origin) by spectrophotometer assay.

Test [21] in a line: Inhibition of ALR2 in rabbit lens using D,L-glyceraldehyde as substrate preincubated for 1 min in presence of NADPH followed by substrate addition and measured after 4 mins by spectrophotometric assay. It is filed as tissue-based, Oryctolagus cuniculus.

Receptor-type tyrosine-protein phosphatase alpha, sequence (P18433 whole entry): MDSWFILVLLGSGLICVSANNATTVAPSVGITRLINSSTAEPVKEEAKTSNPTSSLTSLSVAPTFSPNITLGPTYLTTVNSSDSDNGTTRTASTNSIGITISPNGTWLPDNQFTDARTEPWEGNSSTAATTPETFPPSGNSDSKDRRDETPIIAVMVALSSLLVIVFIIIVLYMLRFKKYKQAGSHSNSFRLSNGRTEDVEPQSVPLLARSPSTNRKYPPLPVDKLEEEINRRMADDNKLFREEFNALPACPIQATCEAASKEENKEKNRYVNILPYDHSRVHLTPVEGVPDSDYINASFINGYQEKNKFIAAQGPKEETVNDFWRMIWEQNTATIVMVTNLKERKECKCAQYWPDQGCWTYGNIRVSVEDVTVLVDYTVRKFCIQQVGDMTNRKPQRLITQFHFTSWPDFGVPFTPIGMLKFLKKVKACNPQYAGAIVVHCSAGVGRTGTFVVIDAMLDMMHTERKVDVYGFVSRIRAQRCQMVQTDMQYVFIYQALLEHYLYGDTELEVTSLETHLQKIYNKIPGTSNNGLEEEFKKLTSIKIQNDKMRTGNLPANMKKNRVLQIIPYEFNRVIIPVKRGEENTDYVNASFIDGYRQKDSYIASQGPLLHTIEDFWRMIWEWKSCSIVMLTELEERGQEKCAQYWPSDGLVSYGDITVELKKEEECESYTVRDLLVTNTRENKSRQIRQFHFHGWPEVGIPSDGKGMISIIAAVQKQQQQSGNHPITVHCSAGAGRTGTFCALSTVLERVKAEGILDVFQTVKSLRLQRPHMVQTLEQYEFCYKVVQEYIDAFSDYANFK

`C[C@@]12CCC[C@](C)(C(=O)O)[C@H]1CCc1cc(OCC(=O)Oc3ccccc3C(=O)O)ccc12` displayed an IC50 in test [1] of 2900 nM.

For the compound `O=C(O)C(=O)Nc1sc2c(c1C(=O)O)COC(COC1=NS(=O)(=O)c3ccccc31)C2` (stereo unspecified), the Ki in [2] is 600 nM. For the compound `O=C(NCCCN1C[C@@H](O)[C@H](O)[C@H]1CO)c1ccc([N+](=O)[O-])cc1`, the concentration for half-maximal inhibition (IC50) in test [3] was determined as 31000 nM. On to `O=C(c1ccccc1)C(Cc1ccc2cc(Br)c(C(F)(F)P(=O)(O)O)cc2c1)(c1ccc2cc(C(F)(F)P(=O)(O)O)c(Br)cc2c1)n1nnc2ccccc21` (stereo unspecified), for which the Ratio IC50 in test [4] is 116. Half-maximal inhibition in test [5] (IC50) was put at 5 nM. As to `O=C1NC(=O)C2(CCCCC2)N1S(=O)(=O)c1ccc(Cl)s1`, in test [6], the Activity stood at 79%. Moreover, the IC50 in [7] was determined as 470 nM.

Regarding `O=C(O)Cn1ccc2cc(OCc3ccccc3)ccc21`, the IC50 in test [8] was found to be 460 nM. Moreover, in [9], the EC50 is over 47400 nM. Take `Cc1cc(/C=C2/S/C(=N/c3ccc(Cl)cc3)NC2=O)c(C)n1-c1cc(C(=O)O)cc(C(=O)O)c1`: the IC50 in test [10] stood at 1600 nM. Take `O=c1c2cc(O)c(O)cc2oc2cc(OCc3cccc(Cl)c3F)cc(O)c12`: in test [11], the IC50 was found to be 600 nM.

Take `CCCCCNC(=O)[C@H](Cc1ccc(OCC(=O)O)c(C(=O)O)c1)NC(=O)[C@H](Cc1ccccc1)NC(=O)CCC(=O)O`: the Ki in test [12] is 250 nM. For `O=C(O)[C@H](Cc1ccccc1)Oc1ccc(-c2ccc(-c3c(Cc4ccccc4)oc4ccccc34)cc2)cc1`, the IC50 was found to be 7100 nM in test [13] and 33700 nM in test [14]. Also, the Activity in [15] was determined as 27%. Regarding `CCCCCNC(=O)[C@H](Cc1ccc(OC(C(=O)O)C(=O)O)cc1)NC(=O)[C@H](Cc1ccccc1)NC(=O)CCC(=O)O`, in test [16], the Ki stood at 1200 nM.

In the case of `O=C1/C(=C/c2ccc(-c3ccccc3)cc2)NC(=S)N1c1ccccc1`, in [17], the IC50 turned out to be 2900 nM. On to `CC(=O)c1cc2cc(-c3cccc(Cl)c3)oc2cc1O`, for which the IC50 worked out at 17800 nM in test [18], 110 nM in test [19] and 2810 nM in test [20]. Consider `O=C(O)Cn1ccc2ccccc21`, for which the IC50 in [21] stood at 7000 nM.

(Values after ChEMBL document CHEMBL5244260, “Aldose reductase and protein tyrosine phosphatase 1B inhibitors as a promising therapeutic approach for diabetes mellitus” (Eur J Med Chem, 2020).)
